# In the supplement of paper PMC10307832:
# Assays:
# Experiment in all cases: relative viability (nuclei count vs DMSO), 5 days (fraction); higher = more cells survive
# Sulindac + Dasatinib = compound: CC1=C(CC(=O)O)c2cc(F)ccc2/C1=C\c1ccc([S+](C)[O-])cc1 [Sulindac] + Cc1nc(Nc2ncc(C(=O)Nc3c(C)cccc3Cl)s2)cc(N2CCN(CCO)CC2)n1 [Dasatinib] (partner 0.075 µM)
# Method in brief: (§1)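 Relative viability divides the nuclei count in treated wells by that in vehicle wells. Lung cancer cell lines were seeded in 1536-well plates, dosed by pin tool the next day, and fixed and stained after 5 days in one step with final 0.05% Triton X-100, 1% formaldehyde and 1 ug/ml Hoechst. Dosing was a single drug or a fixed anchor-drug dose plus five library-drug doses (not always all listed) in √10 steps, and values are medians of duplicate plates imaged at 4×.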
# 5-Fluorouracil + AZD7762 = compound: O=c1[nH]cc(F)c(=O)[nH]1 [5-Fluorouracil] + NC(=O)Nc1cc(-c2cccc(F)c2)sc1C(=O)N[C@H]1CCCNC1 [AZD7762] (partner 0.2 µM)
# Method in brief: as §1
# [1] = compound: CN[C@@H]1C[C@H]2O[C@@](C)([C@@H]1OC)n1c3ccccc3c3c4c(c5c6ccccc6n2c5c31)C(=O)NC4 [Staurosporine] + CC(=O)c1c(C)c2cnc(Nc3ccc(N4CCNCC4)cn3)nc2n(C2CCCC2)c1=O [Palbociclib] (partner 0.5 µM)
# Method in brief: as §1
# [2] = compound: CN[C@@H]1C[C@H]2O[C@@](C)([C@@H]1OC)n1c3ccccc3c3c4c(c5c6ccccc6n2c5c31)C(=O)NC4 [Staurosporine] + CC1(C)CCC(c2ccc(Cl)cc2)=C(CN2CCN(c3ccc(C(=O)NS(=O)(=O)c4ccc(N[C@H](CCN5CCOCC5)CSc5ccccc5)c(S(=O)(=O)C(F)(F)F)c4)cc3)CC2)C1 [Navitoclax] (partner 0.5 µM)
# Method in brief: as §1
Cell Line,relative viability (Sulindac + Dasatinib; first compound 0.08 µM),relative viability (Sulindac + Dasatinib; first compound 0.253 µM),relative viability (Sulindac + Dasatinib; first compound 0.8 µM),relative viability (Sulindac + Dasatinib; first compound 2.53 µM),relative viability (Sulindac + Dasatinib; first compound 8 µM),relative viability (5-Fluorouracil + AZD7762; first compound 0.02 µM),relative viability (5-Fluorouracil + AZD7762; first compound 0.2 µM),relative viability (5-Fluorouracil + AZD7762; first compound 0.6325 µM),relative viability (5-Fluorouracil + AZD7762; first compound 2 µM),relative viability ([1]; first compound 0.005 µM),relative viability ([1]; first compound 0.01581 µM),relative viability ([1]; first compound 0.05 µM),relative viability ([1]; first compound 0.1581 µM),relative viability ([1]; first compound 0.5 µM),relative viability ([2]; first compound 0.005 µM),relative viability ([2]; first compound 0.01581 µM),relative viability ([2]; first compound 0.05 µM),relative viability ([2]; first compound 0.1581 µM),relative viability ([2]; first compound 0.5 µM)
NCI-H1563,0.414,0.451,0.476,0.418,0.497,–,–,–,–,–,–,–,–,–,–,–,–,–,–
NCI-H1623,0.552,0.444,0.525,0.501,0.519,–,–,–,–,–,–,–,–,–,–,–,–,–,–
NCI-H1648,–,–,–,–,–,0.582,0.831,0.493,0.435,0.23,0.227,0.249,0.279,0.258,–,–,–,–,–
NCI-H1650,0.304,0.353,–,0.321,0.341,–,–,–,–,0.238,0.138,0.147,0.118,0.0769,0.63,0.493,0.29,0.192,0.116
NCI-H1703,–,–,–,–,–,0.103,0.072,0.118,0.118,–,–,–,–,–,0.293,0.207,0.143,0.132,0.0869
NCI-H2009,0.297,0.322,0.305,0.256,0.344,–,–,–,–,0.147,0.159,0.13,0.0987,0.0664,0.42,0.38,0.189,0.19,0.0825
NCI-H2023,0.91,0.726,0.424,0.567,0.617,–,–,–,–,0.234,0.186,0.0972,0.0704,0.0509,0.715,0.598,0.257,0.159,0.0924
NCI-H2228,0.592,0.596,0.375,0.549,0.526,–,–,–,–,0.209,0.215,0.3,0.102,0.0805,0.6,0.399,0.165,0.127,0.0586
NCI-H2342,0.276,0.339,0.287,0.303,0.319,0.473,0.622,0.557,0.546,0.507,0.51,0.488,0.433,0.344,–,–,–,–,–
SK-LU-1,0.157,0.162,0.168,0.143,0.202,–,–,–,–,0.326,0.186,0.166,0.164,0.161,0.323,0.115,0.131,0.151,0.059
SK-MES-1,0.336,0.367,0.366,0.352,0.331,–,–,–,–,0.235,0.232,0.193,0.163,0.147,0.925,0.329,0.28,0.173,0.134
SW 900,–,0.582,–,0.524,0.623,0.739,0.695,0.543,0.398,0.376,0.359,0.278,0.201,0.18,–,–,–,–,–
SW 1573,0.392,0.691,–,0.574,0.497,–,–,–,–,0.172,0.113,0.131,0.0619,0.081,0.898,0.297,0.193,0.0915,0.0731
